This is an account of results in patent EP2386565A2, “Compounds and methods to inhibit or augment an inflammatory response” (Cambridge Enterprise Ltd., priority 1999, dated 2000).

The target of assay [1] is T1, 5-HT1a serotonin receptors (Homo sapiens, UniProt P08908).
T1 construct: purchased RBI/Sigma S-160; host or cells: membranes
As to the kind of experiment: Competition of 3H-8-OH-DPAT binding to membranes. The settings on record: 100 µM highest concentration tested. The procedure: For SHT1a serotonin receptors, membranes (S-160, RBI/Sigma) are diluted into binding buffer (50 mM Tris pH 7.4 10 mM MgCl2 and 0.5 mM EDTA, with ascorbate at 1 mg/ml added immediately before use), e.g., 10 µl of membranes in 500 µl assay volume (i.e., 1:50 dilution). Cold competitor or test competitor is then added, e.g., 5 µl of 100x stock solution such as 5 µl of 1 mM oxymetazoline. Radioligand (^3H-8-OH-DPAT, TRK850, Amersham, 250 µCi in 250 µl; 4.5 µM at 222 Ci/mmol) is then added. For competition studies, ligand is employed (e.g., a 100x stock (i.e., 150 nM) is prepared by diluting the commercial stock 1:30 in binding buffer). Control tubes are prepared which have radioligand but no membranes. The tubes are vortexed then spun briefly. The mixtures are incubated for 1 hour at 4°C. The mixtures are filtered through GF/C filters pre-soaked in polyethyleneimine (0.3% in MilliQ water). The tubes are washed with 2-3 ml of wash buffer and filtered. The filter is washed with 3 x 5 ml of wash buffer, and air dried. 4.5 ml of scintillant is added to the dried filter in a scintillation vial and the filter counted on a tritium channel.

The test system of assay [2] is TGFβ1 induced THP-1 migration. The experiment in a line: THP-1 trans-well migration assay, TGFβ1 as non-chemokine control chemoattractant. In kind it is cell-based, human. The settings on record: for % inhibition at 100 µM versus TGFβ1: THP-1 migration, agent at 100 µM, n.s. = no statistically significant inhibition. The procedure: Any method suitable for counting cells can be used, for example, counting with a hemocytometer, incubation of the cells with MTT (see above), or FACS analysis. A negative control assay is also performed, using TGF-β or another non-chemokine chemoattractant (e.g., IL1β or TNFα). To assess whether the agent is cytotoxic, the same concentrations of agent are incubated with THP-1 cells. Agents which 1) are not cytotoxic at levels which inhibit migration, 2) are ineffective at inhibiting the negative control-induced migration, and 3) reduce or inhibit chemokine-induced THP-1 migration, are agents which fall within the scope of the invention.
For this assay, THP-1 cells were maintained at a density of 4 × 10^5 cells per ml in RPMI-1640 supplemented with 10% fetal calf serum + 20 µM 2-mercaptoethanol. Chemotaxis was induced in a 96-well disposable chemotaxis chamber fitted with a 5 µM polycarbonate filter (PVP free, ChemoTX, Neuroprobe Inc., Cabin John). Twenty-nine µl of chemoattractant (recombinant human chemokine; 50 ng/ml, i.e., 5.9 nM) or control (100 ng/ml TGFβ) was added to the lower compartment of each well. The framed filter was aligned with the holes in the corner of the filter frame and placed over the wells.
Five × 10^4 THP-1 cells in 25 µl of RPMI-1640 were added to the upper compartment. Peptides were dissolved in Milli Q water and then serially diluted in culture medium. […]
After incubation, the cells were gently removed from the top of the filter with a pipette, 20 µl of 20 mM EDTA in PBS was added into each top well, and the mixture was incubated for 20 minutes at 4°C. […] A standard curve was prepared to accurately quantify the number of THP-1 cells that had migrated. […] Absorbance of converted dye was measured at a wavelength of 595 nm using an ELISA plate reader. The number of cells that had migrated in each well was determined by interpolation of the standard curve.
To investigate the receptor specificity of peptide 3 inhibition, the ED50 was determined for peptide 3(1-12)[MCP-1] […]

Molecules are shown by their SMILES. Positions of bridges follow the written chain, without caps; N, C: chain ends. Non-standard residues stand in square brackets, D forms with d. Residues, ends and D or L forms follow the SMILES beside them.

T1 sequence (P08908 whole entry): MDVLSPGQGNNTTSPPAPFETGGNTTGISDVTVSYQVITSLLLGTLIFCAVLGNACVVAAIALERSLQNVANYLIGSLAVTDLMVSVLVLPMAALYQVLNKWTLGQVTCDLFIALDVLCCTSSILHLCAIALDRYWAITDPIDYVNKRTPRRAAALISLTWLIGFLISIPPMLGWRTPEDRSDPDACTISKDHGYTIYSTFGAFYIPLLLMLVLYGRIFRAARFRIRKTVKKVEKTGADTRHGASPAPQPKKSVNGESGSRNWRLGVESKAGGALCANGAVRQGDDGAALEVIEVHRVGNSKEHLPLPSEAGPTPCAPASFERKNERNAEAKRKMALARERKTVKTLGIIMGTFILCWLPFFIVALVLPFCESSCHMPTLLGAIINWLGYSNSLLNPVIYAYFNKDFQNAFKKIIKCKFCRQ

For the molecule `CC[C@@H](C)[C@H]1NC(=O)[C@@H](CCC(N)=O)NC(=O)[C@H](N)CSSC[C@H](C(N)=O)NC(=O)[C@@H](CC(C)C)NC(=O)[C@@H](CC(=O)O)NC(=O)[C@H]2CCCN2C(=O)[C@@H](CCCCN)NC(=O)[C@@H](CCC(N)=O)NC(=O)[C@@H](CCCCN)NC(=O)[C@@H](Cc2c[nH]c3ccccc23)NC1=O` (H-[dC][dQ][dI][dW][dK][dQ][dK][dP][dD][dL][dC]-NH2; disulfide 1-11), the “ED50 for competition of 8-OH-DPAT binding to 5-HT1a receptors” value in assay [1] is more than 100 µM.

As to `CC[C@H](C)[C@H](NC(=O)[C@H](C)NC(=O)[C@H](CC(=O)O)NC(=O)[C@@H]1CCCN1C(=O)[C@H](CCC(N)=O)NC(=O)[C@H](C)N)C(=O)N[C@@H](CC(N)=O)C(=O)N[C@@H](C)C(=O)N1CCC[C@H]1C(=O)N[C@H](C(=O)N[C@H](C(=O)N[C@@H](CS)C(=O)N[C@@H](CS)C(=O)O)[C@@H](C)O)C(C)C` [Peptide 1] (H-AQPDAINAPVTCC-OH; N-terminus and C-terminus assumed), the “% inhibition at 100 µM versus TGFβ1” value in assay [2] was “n.s”; in assay [2] (listed as peptide 1[MCP-1]), “did not significantly inhibit”. For the same molecule, the “ED50 (µM) versus TGFβ1” value in assay [2] (inhibition of THP-1 migration, n.s. = not statistically significant) is reported as “n.s”.
